According to patent publication US8765719B2, “Therapeutic drug for adult T-cell leukemia” (Kagoshima University, priority 2008, dated 2014):
Read-outs that look alike come from different tables or passages of the source.

Legend:
Type in all cases: cell-based
[1] = tested on: MOLT-4 (acute lymphoblastic leukemia cell strain); assay: Growth inhibition of MOLT-4 control cells, 4-day culture, MTT method; settings: MOLT-4 cells, 4 days
Protocol: (§1) In the presence of various agents, S1T (cell strain originated from an ATL patient), MT-2 (HTLV-1 infected cell strain), and as controls, MOLT-4 (acute lymphoblastic leukemia cell strain), CEM (acute lymphoblastic leukemia cell strain), HL-60 (acute promyelocytic leukemia cell strain), and Jurkat (acute T-cell leukemia cell strain) were cultivated for 4 days, and the growth inhibitory effects of compounds on the respective cells were evaluated by the MIT method.
(§2) In the presence of various concentrations of agents, SIT (cell strain originated from an ATL patient) and as a control MOLT-4 (acute lymphoblastic leukemia cell strain) were cultivated for 4 days, and the growth inhibitory effects of the compounds on the respective cells were evaluated by the MTT method.

[2] = tested on: S1T (cell strain originated from an ATL patient); assay: Growth inhibition of S1T cells, 4-day culture, MTT method; settings: for IC50: S1T cells, 4 days; for Selectivity to ATL cell (S1T) in words: S1T versus MOLT-4; for Selectivity index on the S1T cell (SI = IC50 for MOLT-4/IC50 for S1T): screen with S1T and MOLT-4
Protocol: as §1, §2

[3] = tested on: MT-2 (HTLV-1 infected cell strain); assay: Growth inhibition of MT-2 cells, 4-day culture; settings: 4 days
Protocol: as §1, with “S1T” left out

[4] = tested on: Jurkat (acute T-cell leukemia cell strain); assay: Growth inhibition of Jurkat control cells, 4-day culture; settings: 4 days
Protocol: as §1, with “S1T” left out

[5] = tested on: HL-60 (acute promyelocytic leukemia cell strain); assay: Growth inhibition of HL-60 control cells, 4-day culture; settings: HL-60 cells, 4 days
Protocol: as §1, with “S1T” left out

[6] = tested on: CEM (acute lymphoblastic leukemia cell strain); assay: Growth inhibition of CEM control cells, 4-day culture; settings: 4 days
Protocol: as §1, with “S1T” left out

[7] = Homo sapiens, 96 h, Table 2, MTT, mean of at least 2 experiments, read-out: IC50 (μM) MOLT-4 cell
[8] = Homo sapiens, 96 h, Table 2, MTT, mean of at least 2 experiments, read-out: IC50 (μM) S1T cell
[9] = Table 2, selectivity to ATL cell (IC50 for MOLT-4/IC50 for S1T)
[10] = Homo sapiens, 96 h, Table 1, concentration to inhibit cell growth by 50%, read-out: IC50 (μM) MOLT-4
[11] = Homo sapiens, 96 h, Table 1, concentration to inhibit cell growth by 50%, read-out: IC50 (μM) S1T
[12] = Table 1, selectivity index = IC50 for MOLT-4/IC50 for S1T
[13] = Table 2, MTT, mean of at least 2 experiments, read-out: IC50 (μM) MOLT-4 cell
[14] = Table 2, MTT, mean of at least 2 experiments, read-out: IC50 (μM) S1T cell

IC50 [1, 7] [µM]	IC50 [1, 10] [µM]	SMILES	IC50 [2, 8] [µM]	SI [2, 9]	IC50 [2, 11] [µM]	SI [2, 12]	further results
21.5 ± 2.2	–	CCC(=O)c1ccc2c(c1)C(C)(C)CCC2(C)C [Agent E, 5,6,7,8-tetrahydro-5,5,8,8-tetramethyl-2-naphthyl ethyl ketone]	3.3 ± 1	6.5	–	–	–
–	66	CC(=O)c1ccc2c(c1)C(C)(C)CCC2(C)C [TMN(COCH3), 5,6,7,8-tetrahydro-5,5,8,8-tetramethyl-2-naphthyl methyl ketone]	–	–	6.9	9.6	Selectivity to ATL cell (S1T) in words [2]: higher selectivity to an ATL cell than other derivatives with analogous structures
–	> 100	CC1(C)CCC(C)(C)c2ccccc21 [TMN, reference compound]	–	–	> 100	–	–
34.6 ± 1.5	–	CC(C)C(=O)c1ccc2c(c1)C(C)(C)CCC2(C)C [Agent F, 5,6,7,8-tetrahydro-5,5,8,8-tetramethyl-2-naphthyl isopropyl ketone]	3.8 ± 2.1	9.1	–	–	–
13.6 ± 2.6	–	CC1(C)CCC(C)(C)c2cc3c(cc21)OCCC3=O [Agent O, 2,3,6,7,8,9-hexahydro-6,6,9,9-tetramethyl-4H-naphtho[2,3-b]pyran-4-one]	6.7 ± 0.9	2.0	–	–	–
–	–	CON(C)C(=O)c1ccc2c(c1)C(C)(C)CCC2(C)C [Agent J, 5,6,7,8-tetrahydro-5,5,8,8-tetramethyl-2-naphthyl-N-methoxy-N-methylamide]	–	<1.0	–	–	IC50 [1, 13]: 9.9 µM; IC50 [2, 14]: 12.6 ± 2.1 µM
–	–	CN(C)C=CC(=O)c1cc2c(cc1O)C(C)(C)CCC2(C)C [Agent M, 5,6,7,8-tetrahydro-3-hydroxy-5,5,8,8-tetramethyl-2-naphthyl 13-(N,N-dimethylamino)vinyl ketone]	–	4.4	–	–	IC50 [1, 13]: 9.3 ± 0.9 µM; IC50 [2, 14]: 2.1 ± 0.1 µM
14.5 ± 1.9	–	CC1(C)CCC(C)(C)c2cc3c(=O)ccoc3cc21 [Agent N, 6,7,8,9-tetrahydro-6,6,9,9-tetramethyl-4H-naphtho[2,3-b]pyran-4-one]	1.9 ± 0.2	7.6	–	–	–
–	61.1	CC1(C)CCC(C)(C)c2cc(C(=O)O)ccc21 [TMBA, reference compound]	–	–	> 100	<0.61	–
–	–	CC(=S)c1cc2c(cc1O)C(C)(C)CCC2(C)C [Agent G, 5,6,7,8-tetrahydro-3-hydroxy-5,5,8,8-tetramethyl-2-naphthyl ethanethione]	–	5.3	–	–	IC50 [1, 13]: 36.4 ± 2.1 µM; IC50 [2, 14]: 6.9 ± 2.3 µM
–	–	CC1(C)CCC(C)(C)c2cc(C(N)=O)ccc21 [Agent K, 5,6,7,8-tetrahydro-5,5,8,8-tetramethyl-2-naphthyl amide]	–	1.1	–	–	IC50 [1, 13]: 39.4 ± 10.4 µM; IC50 [2, 14]: 37 ± 2.1 µM
–	11.9	COc1cc2c(cc1C(C)=O)C(C)(C)CCC2(C)C [TMN(OCH3) (COCH3)]	–	–	7	1.7	Selectivity to ATL cell (S1T) in words [2]: higher selectivity to an ATL cell than other derivatives with analogous structures
11.8 ± 2.2	–	CC1(C)CCC(C)(C)c2cc(C(=O)c3ccccc3)ccc21 [Agent H, 5,6,7,8-tetrahydro-5,5,8,8-tetramethyl-2-naphthyl phenyl ketone]	7 ± 0.9	1.7	–	–	–

SMILES	IC50 [1, 7] [µM]	IC50 [1, 10] [µM]	IC50 [2, 8] [µM]	SI [2, 9]	IC50 [2, 11] [µM]	SI [2, 12]	further results
CC1(C)CCC(C)(C)c2cc(C(=O)c3ccccc3)c(O)cc21 [Agent D, 5,6,7,8-tetrahydro-3-hydroxy-5,5,8,8-tetramethyl-2-naphthyl phenyl ketone]	28.3 ± 0.7	–	15.2 ± 2.3	1.9	–	–	–
CC(=O)c1cc2c(cc1O)C(C)(C)CCC2(C)C [TMNAA, 5,6,7,8-tetrahydro-3-hydroxy-5,5,8,8-tetramethyl-2-naphthyl methyl ketone]	–	53.8	–	–	5	10.8	Growth inhibitory effect on MT-2 [3]: specific inhibitory effect solely on MT-2; Growth inhibitory effect on Jurkat [4]: specific inhibitory effect solely on MT-2; Growth inhibitory effect on HL-60 [5]: specific inhibitory effect solely on MT-2; Growth inhibitory effect on CEM [6]: specific inhibitory effect solely on MT-2; Concentration at which growth of an ATL cell is selectively inhibited in comparison to the control ([2]; FIG. 1): ≥ 4 µM; Selectivity to ATL cell (S1T) in words [2]: higher selectivity to an ATL cell than other derivatives with analogous structures; Selectivity index on the S1T cell (SI = IC50 for MOLT-4/IC50 for S1T) [2]: ≥ 10; Selectivity index on the S1T cell (SI = IC50 for MOLT-4/IC50 for S1T) ([2]; listed as compound of the formula III): above 10
CC(C)C(=O)c1cc2c(cc1O)C(C)(C)CCC2(C)C [Agent B, 5,6,7,8-tetrahydro-3-hydroxy-5,5,8,8-tetramethyl-2-naphthyl isopropyl ketone]	31.9 ± 0.2	–	6 ± 0.7	5.3	–	–	–
O=C([O-])c1ccccc1O.[Na+] [Sodium salicylate, reference compound]	–	1320	–	–	1570	0.84	Selectivity to ATL cell (S1T) in words [2]: no selectivity to S1T was recognized
CCC(=O)c1cc2c(cc1O)C(C)(C)CCC2(C)C [Agent A, 5,6,7,8-tetrahydro-3-hydroxy-5,5,8,8-tetramethyl-2-naphthyl ethyl ketone]	32.3 ± 5.4	–	4.7 ± 1.3	6.9	–	–	–
CC1(C)CCC(C)(C)c2cc(C(=O)O)c(O)cc21 [TNBAA, reference compound]	–	44.4	–	–	29.7	1.49	–
CC(C)(C)C(=O)c1cc2c(cc1O)C(C)(C)CCC2(C)C [Agent C, 5,6,7,8-tetrahydro-3-hydroxy-5,5,8,8-tetramethyl-2-naphthyl tert-butyl ketone]	43.2 ± 2.4	–	41.5 ± 0.8	1.0	–	–	–
